The conditions of series [1]: cited from earlier work.
Series [2] has as its system cell line expressing α-tubulin-YFP. The experiment in a line: α-tubulin-YFP expressing cell line, flow cytometry of strong fluorescent cells. The series is classed as cell-based. In general terms: In flow cytometry, cells or beads pass a laser one at a time.
The subject of another series is 26S proteasome. The series can be described thus: Proteasome-sensor cells, flow cytometry. The series is classed as cell-based. On the procedure: The first measurement was determined by the increase of proteasome-sensor positive cells treated with Compound 1 or Velcade, as compared to DMSO, by using a cell line expressing the proteasome-sensor protein and flow cytometry analysis.
To measure the proteasome-inhibition effect of Compound 1, GFP fluorescence in the proteasome-sensor cells treated with Compound 1 and Velcade was measured using flow cytometry. […] Cells were harvested by treating the cells with 1×PBS for 5 minutes and pipetting the cells up and done 10 times. The cells were passed through a 100 μm-diameter filter before analyzing by FACS. A standard FITC filter was used for the FACS analysis. Quantitation of the proteasome-inhibitory effect of Compound 1 was determined by an increase in the percentage of GFP-positive cells, as compared to treatment with DMSO alone.
To further characterize the proteasome-inhibitory effect of Compound 1 in live cells, proteasome-sensor cells were treated with Compound 1 and the accumulation of the GFP-based proteasome substrate was measured by flow cytometry.

The next series concerns CHO cells. The experiment in a line: Cell morphology, simultaneous time-lapse imaging of CHO cells. The settings on record: for cell death: cells, after a certain period of treatment. The series is classed as cell-based, Chinese hamster. On the procedure: CV-1 cells and CHO cells were previously cultured in 2-well chambered cover-slips for 48 hours and incubated in 15 mM HEPES buffer-containing Ham's F-12/DMEM medium with different compounds. The cells were imaged using phase contrast settings with the Nikon TE300 microscope/digital imaging system. The cells were imaged ‘simultaneously’ under control of MetaVue software by capturing frames for cells from different conditions at the same time period using a motorized automated XYZ stage.
To track the effect of Compound 1 on live cells, non-transfected CV-1 cells with were treated with 500 nM Compound 1 and phase contrast time-lapse images were taken every 10 seconds. […] A very low concentration of Taxol (10 nM) was used.

Series [3] addresses T1, bovine red blood cell 20S proteasome (Bos taurus, UniProt Q32KL2).
T1 construct: bovine red blood cell 20S proteasome; purchased Calbiochem; host or cells: purified from bovine red blood cells
The experiment in a line: 20S Proteasome Assay (in vitro, Suc-Leu-Val-Tyr-AMC). The series is classed as biochemical. The conditions noted are these: isolated 20S proteasome; for proteasome activity in vitro: 5 nM. On the procedure:
190 μl of reaction buffer (500 mM HEPES, 10 nM EDTA, pH 7.6), containing 0.03% SDS was pre-incubated for 5 minutes at 37° C. in the presence of 0.2 μg of bovine red blood cell 20S proteasome (Calbiochem, San Diego, Calif.) for temperature equilibration. Subsequently, inhibitors or Compound 1 were added to the reaction mixture at a final DMSO concentration of 0.5%. The reaction was initiated by adding 10 μl of the peptide-AMC substrate (Calbiochem, San Diego, Calif.) to each well. The emitted fluorescence was then measured every third minute at 37° C. for 90 minutes by a fluorescence plate reader (FlexStation II, Molecular Devices, Sunnyvale, Calif.) at 460 nm (λex360 nm) wavelength.
The buffers and reagents for the assay were purchased from Calbiochem (20S Proteasome Assay Kit; Calbiochem, San Diego, Calif.). The principle of the assay is that the release of free AMC (7-Amino-4-methylcoumarin) following degradation of the substrate results in a fluorescent signal that is a measure of proteasome activity. The quantitative analysis of 20S proteasome activity was assayed as described.

We go through 2 compounds from patent US20060167106A1, “Compounds acting at the centrosome” (priority 2004, published 2006).

Entries after “also recorded” stand apart in the source; their conditions may differ.

On to `CN(NC(=O)CC(=O)NN(C)C(=S)c1ccccc1)C(=S)c1ccccc1` [Compound 1], for which the toxicity in vivo result in series [1] was “very low toxicity in vivo”. Further, the “increase of the strong-fluorescent positive cells compared to DMSO” value in series [2] (500 nM) came out at 20.37%. Also, the “increase of the fluorescent positive cells (proteasome-sensor positive) compared to DMSO” value in the series with 26S proteasome (500 nM) was 14.53%. For the same compound, the “increase of fluorescence (non-gated flow cytometry)” value with 26S proteasome (500 nM, 20 hours) is listed as “significant increase of fluorescence”. The “increase in fluorescent cell population, lower than that of cells treated with Velcade” value in the series on 26S proteasome (Compound 1 500 nM versus Velcade 100 nM, 20 hours) is reported as “about 4 fold”. In addition, the “time of induced cell shrinkage” value in the series with CHO cells (CHO cells, 500 nM) worked out at 70 min. Further, the cell death entry in the series with CHO cells is on record as “cause cell death after a certain period of treatment”. Besides, the figures for the “proteasome inhibitory activity in vitro (overall statement)” value in series [3] and in series [3] (listed as GMP-grade Compound 1) were “very weak proteasome inhibitory activity in the in vitro assay” and “failed to inhibit isolated proteasomes”, respectively. Moreover, in series [3], the “proteasome activity in vitro” value is on record as “no effect on proteasome activity”. For the same compound, the “proteasome inhibitory activity in vitro” value in series [3] (50 μM) is given as “did not exhibit significant proteasome inhibitory activity; also recorded: neither Compound 1 nor its salt form, Compound 2, displayed significant proteasome inhibitory activity”.

In the case of `CC(C)C[C@H](NC(=O)[C@H](Cc1ccccc1)NC(=O)c1cnccn1)B(O)O` [Velcade], in series [1], the toxicity in vivo result is “greater toxicity”. Further, the “increase of the strong-fluorescent positive cells compared to DMSO” value in series [2] (50 nM) is 27.74%. Further, the “increase of the fluorescent positive cells (proteasome-sensor positive) compared to DMSO” value with 26S proteasome (100 nM) came out at 58.26%. Moreover, the “increase of fluorescence (non-gated flow cytometry)” value with 26S proteasome (100 nM, 20 hours) is on record as “significant increase of fluorescence”. In the series on CHO cells (CHO cells, 100 nM), the “effect on cell morphology” value was “did not dramatically affect cell morphology until cell death” and the “time of cell death” value was found to be 210 min. Moreover, the cell death entry in the series on CHO cells is listed as “cause cell death after a certain period of treatment”. The “proteasome activity in vitro” value in series [3] is “almost complete inhibition”. Also, the “proteasome inhibition in vitro” value in series [3] (0.5 μM) is listed as “almost completely inhibited the proteasome”.
